Assay results as given in patent US9023864B2, “Indole derivatives as CRTH2 receptor antagonists” (Merck Sharp & Dohme Corp., priority 2009, dated 2015).

The compounds below were run against T1, hCRTH2 (Homo sapiens, UniProt Q9Y5Y4) (assay: Radioligand binding assay ([3H]PGD2 competition, membranes from HEK-hCRTH2 cell line)). Conditions: 0.7 nM [3H]PGD2, membrane protein from HEK-hCRTH2 cell line, 60 min at room temperature; values given as ranges.
T1 construct: expressed in transfected cells; host or cells: HEK cell line expressing hCRTH2 (HEK-hCRTH2); membranes
T1 sequence (Q9Y5Y4 1-395): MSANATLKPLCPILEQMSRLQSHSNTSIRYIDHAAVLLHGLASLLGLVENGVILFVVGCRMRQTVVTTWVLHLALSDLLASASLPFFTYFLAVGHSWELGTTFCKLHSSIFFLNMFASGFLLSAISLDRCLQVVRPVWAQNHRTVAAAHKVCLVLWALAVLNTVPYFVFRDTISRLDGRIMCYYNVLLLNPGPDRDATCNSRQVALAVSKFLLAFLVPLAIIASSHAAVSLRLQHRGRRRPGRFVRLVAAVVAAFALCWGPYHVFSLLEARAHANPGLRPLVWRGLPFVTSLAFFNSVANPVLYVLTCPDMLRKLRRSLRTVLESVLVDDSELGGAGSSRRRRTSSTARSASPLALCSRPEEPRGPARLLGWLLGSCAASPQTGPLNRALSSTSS
Protocol: Radioligand Binding Assay.
Radioligand binding assays were performed at room temperature in 10 mM HEPES/KOH pH 7.4, 1 mM EDTA containing 10 mM MnCl2 and 0.7 nM [^3H]PGD2 (NEN, 171 Ci mmol^−1), in a final volume of 0.2 ml. Competing ligands were diluted in dimethylsulfoxide (Me2SO) that was kept constant at 1% (v/v) of the final incubation volume. The reaction was initiated by the addition of 8-20 μg of membrane protein prepared from a HEK-hCRTH2 cell line. Total and non-specific binding were determined in the absence and the presence of 10 μM PGD2, respectively. Under these conditions, specific binding (total minus non-specific) of the radioligand to the receptor reached equilibrium within 50 min and was stable up to 180 min. The reaction was routinely conducted for 60 min at room temperature and terminated by rapid filtration through prewetted Unifilters GF/C (Packard), using a Tomtec MachIII semi-automated harvester (for HEK-hCRTH2). The filters were then washed with 4 ml of the same buffer and residual radioligand bound to the filter was determined by liquid scintillation counting following equilibration in 25 μl Ultima Gold F™ (Unifilter) (Packard). The Ki (in nM) values for representative compounds of the present invention are as follows: ≦5: Examples 3.1, 5.1, 6.1, 7.1, 8.1/8A, 9.1, 26, 27.1, 28.1, 29.1, 30, 31.1, 31.3, 32.1, 32.4, 33.1, 34.1, 36.1, 38.1, 39, 40, 41; >5 and ≦10: Examples, 4, 5.3, 29.2; >10 and ≦50: Examples 1, 10, 14, 21, 22, 25, 31.4, 32.3, 35, 36.2, 37; >50 and ≦100: Examples 2, 5.4, 6.2, 27.2, 28.2; >100: Examples 3.2, 5.2, 7.2, 8.2, 9.2, 11, 12, 13, 15, 16, 17, 18, 19, 20, 23, 24, 31.2, 32.2, 33.2, 34.2, 38.2.

| Structure (SMILES) | Ki [nM] |
| --- | --- |
| CC(C)C(O)c1cn(C2CCc3c(CC(=O)O)c4ccccc4n3C2)nn1 (stereo not drawn) [Example 12, {7-[4-(1-Hydroxy-2-methyl-propyl)-[1,2,3]triazol-1-yl]-6,7,8,9-tetrahydropyrido[1,2-α]indol-10-yl}-acetic acid] | > 100 |
| CC(O)(c1ccccc1)c1cn(C2CCc3c(CC(=O)O)c4ccccc4n3C2)nn1 (stereo not drawn) [Example 13, {7-[4-(1-Hydroxy-1-phenyl-ethyl)-[1,2,3]triazol-1-yl]-6,7,8,9-tetrahydropyrido[1,2-α]indol-10-yl}-acetic acid] | > 100 |
| CS(=O)(=O)c1ccc(-c2cn(C3CCc4c(CC(=O)O)c5ccccc5n4C3)nn2)cc1 (stereo not drawn) [Example 15, {7-[4-(4-Methanesulfonyl-phenyl)-[1,2,3]triazol-1-yl]-6,7,8,9-tetrahydropyrido[1,2-α]indol-10-yl}-acetic acid] | > 100 |
| CC(C)(O)c1ccc(-c2cn(C3CCc4c(CC(=O)O)c5ccccc5n4C3)nn2)cc1 (stereo not drawn) [Example 16, (7-{4-[4-(1-Hydroxy-1-methyl-ethyl)-phenyl]-[1,2,3]triazol-1-yl}-6,7,8,9-tetrahydropyrido[1,2-α]indol-10-yl)-acetic acid] | > 100 |
| CN(C)c1ccc(-c2cn(C3CCc4c(CC(=O)O)c5ccccc5n4C3)nn2)cc1 (stereo not drawn) [Example 19, {7-[4-(4-Dimethylamino-phenyl)-[1,2,3]triazol-1-yl]-6,7,8,9-tetrahydropyrido[1,2-α]indol-10-yl}-acetic acid] | > 100 |
| O=C(O)Cc1c2n(c3ccccc13)CC(n1nncc1-c1ccc(F)cc1)CC2 (stereo not drawn) [Example 20, {7-[5-(4-Fluoro-phenyl)-[1,2,3]triazol-1-yl]-6,7,8,9-tetrahydropyrido[1,2-α]indol-10-yl}-acetic acid] | > 100 |

The remaining lines, values ahead:

| Ki [nM] | Structure (SMILES) |
| --- | --- |
| 5 to 10 | O=C(O)Cc1c2n(c3ccccc13)CC(n1nncc1COc1c(Cl)cccc1Cl)CC2 (stereo not drawn) [Example 4, (7-{5-[(2,6-dichlorophenoxy)methyl]-1H-1,2,3-triazol-1-yl}-6,7,8,9-tetrahydropyrido[1,2-α]indol-10-yl)acetic acid] |
| ≤ 5 | O=C(O)Cc1c2n(c3c(F)cccc13)C[C@H](n1nncc1Cc1ccc(F)cc1)CC2 [Example 8.1, {(7R)-4-Fluoro-7-[5-(4-fluorobenzyl)-1H-[1,2,3]triazol-1-yl]-6,7,8,9-tetrahydropyrido[1,2-a]-indol-10-yl}-acetic acid] |
| 10 to 50 | O=C(O)Cc1c2n(c3ccccc13)CC(n1cc(-c3ccc(F)cc3)nn1)CC2 (stereo not drawn) [Example 10, {7-[4-(4-Fluoro-phenyl)-[1,2,3]triazol-1-yl]-6,7,8,9-tetrahydropyrido[1,2-α]indol-10-yl}-acetic acid] |
| > 100 | CS(=O)(=O)NCCCCc1cn(C2CCc3c(CC(=O)O)c4ccccc4n3C2)nn1 (stereo not drawn) [Example 11, {7-[4-(4-Methanesulfonylamino-butyl)-[1,2,3]triazol-1-yl]-6,7,8,9-tetrahydropyrido[1,2-α]indol-10-yl}-acetic acid] |
| 10 to 50 | O=C(O)Cc1c2n(c3ccccc13)CC(n1cc(COc3ccccc3)nn1)CC2 (stereo not drawn) [Example 14, [7-(4-Phenoxymethyl-[1,2,3]triazol-1-yl)-6,7,8,9-tetrahydropyrido[1,2-α]indol-10-yl]-acetic acid] |
| > 100 | O=C(O)Cc1c2n(c3ccccc13)CC(n1cc(-c3ccc(C(F)(F)F)cc3)nn1)CC2 (stereo not drawn) [Example 17, {7-[4-(4-Trifluoromethyl-phenyl)-[1,2,3]triazol-1-yl]-6,7,8,9-tetrahydropyrido[1,2-α]indol-10-yl}acetic acid] |
| > 100 | O=C(O)Cc1c2n(c3ccccc13)CC(n1cc(-c3cccc4ccccc34)nn1)CC2 (stereo not drawn) [Example 18, [7-(4-Naphthalen-1-yl-[1,2,3]triazol-1-yl)-6,7,8,9-tetrahydropyrido[1,2-α]indol-10-yl]-acetic acid] |
| 10 to 50 | O=C(O)Cc1c2n(c3ccccc13)CC(n1nncc1COc1ccccc1)CC2 (stereo not drawn) [Example 21, [7-(5-Phenoxymethyl-[1,2,3]triazol-1-yl)-6,7,8,9-tetrahydropyrido[1,2-α]indol-10-yl]-acetic acid] |
